In patent publication US9913828B2, “Benzothiazolone compound” (Novartis AG, priority 2011, dated 2018):

What was measured:
α1A AR = target: T1, α1A AR (Homo sapiens, UniProt P35348); experiment: Ca2+ FLIPR assay in human adrenergic Alpha1A CHO-K1 cell line (Test 1); type: cell-based; conditions: read-out: CHO cells EC50 α1A AR
T1 sequence (P35348 1-466): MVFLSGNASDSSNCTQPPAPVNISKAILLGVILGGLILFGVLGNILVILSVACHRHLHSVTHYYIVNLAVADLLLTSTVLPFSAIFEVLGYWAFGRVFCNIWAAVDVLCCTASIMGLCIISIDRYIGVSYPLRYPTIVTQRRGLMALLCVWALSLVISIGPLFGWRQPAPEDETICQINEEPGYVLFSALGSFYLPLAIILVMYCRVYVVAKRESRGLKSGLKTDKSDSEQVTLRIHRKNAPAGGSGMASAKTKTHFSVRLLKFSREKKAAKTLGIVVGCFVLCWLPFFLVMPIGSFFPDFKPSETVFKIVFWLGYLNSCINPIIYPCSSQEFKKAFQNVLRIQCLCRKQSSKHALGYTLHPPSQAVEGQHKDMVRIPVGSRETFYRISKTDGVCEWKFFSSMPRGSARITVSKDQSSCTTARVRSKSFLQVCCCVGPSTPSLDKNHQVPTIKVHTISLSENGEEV
Description: Compounds acting as agonists induce a transient increase of intracellular calcium. This was recorded on the FLIPR system. A measurement of the signal baseline was first recorded every second for 2 minutes before the injection of the compounds. […] Low controls (unstimulated cells) were determined with the addition of 5 μL of assay buffer.

[1] = Comparative solubilities in H2O with pH adjustment; type: physicochemical
Description: The relative solubilities of the free base form and the acetate and glycolate salt forms of Compound A were analysed and the results are show in the table below. Solutions were titrated with addition of HCl or NaOH for pH adjustment. The improved aqueous solubilities of the acetate and glycolate salt forms relative to the free base form of Compound A make the acetate and glycolate salts of Compound A more suitable for subcutaneous injection or infusion.

[2] = test system: isolated rabbit sino-atrial nodes; experiment: Sino-atrial node beating rate in isolated rabbit right atrium
Description: New Zealand white female rabbits were killed by exsanguination after a deep anesthesia using a mixture of ketamine/xylazine, i.v. The heart was quickly removed and placed in Tyrode's solution. […] The right atrium was separated from the rest of the heart. The preparations were mounted in a tissue bath and kept at 37±0.5° C. for at least one hour stabilization. Action potentials (AP) were intracellularly recorded with a standard glass microelectrode filled with 3 M KCl, connected to a high input impedance-neutralizing amplifier (VF-180 microelectrode amplifier, Bio-Logic). […] After one hour of stabilization, compounds were added to the Tyrode's solution at the increasing concentrations, each concentration being maintained for 30 minutes. There was no wash-out between two concentrations. Electrophysiological measurements were made by analyzing action potentials during the experimental protocol at the end of the 30 minute perfusion period. The SA spontaneous frequency was evaluated by counting the number of beats every 10 seconds to express the results in number of beats per minute (bpm). Data were expressed as mean±SEM.

[3] = test system: isolated Langendorff perfused rabbit hearts; experiment: Automaticity in isolated Langendorff perfused rabbit hearts
[4] = test system: Wistar Han (W-H) IGS rats; experiment: Heart rate in vivo in rats after s.c. bolus; design: species or system rat; conditions: up to 0.3 mg/kg, compared to formoterol
Excerpt: Wistar Han (W-H) IGS (International Genetic Standard) rats (Crl:WI(Han)) were purchased from Charles River Laboratories. Femoral arterial and venous catheters were chronically implanted and exteriorized through a spring tether-swivel system and housed in specialized cages. Arterial catheter was connected to a pressure transducer to continuously measure pulse pressure, mean arterial pressure and heart rate, which was derived from the blood pressure signal, via a digital data acquisition system. Compounds were administered via s.c catheter implanted through the skin buttun. Values are expressed as means±SEM (n=3).

Rhesus monkeys = experiment: Heart rate in vivo in rhesus monkeys after single s.c. administration; design: species or system rhesus monkey; conditions: s.c. bolus, up to 0.03 mg/kg; compared to formoterol
Description: Rhesus monkeys, 24 females with body weight around 4 to 8 kg, were randomized into 4 groups of n=6. The animals were restrained on a chair up to 4 hours after single subcutaneous administration of compounds, and then returned to their pens. Heart rates were measured using a Surgivet V3304 device. Values are expressed as means±SEM (n=6).

Serotonin 5-HT2C = target: T2, Serotonin 5-HT2C (Homo sapiens, UniProt P28335); experiment: Aequorin agonist assay in CHO-K1 cells expressing recombinant Serotonin 5-HT2C and Gα16; type: cell-based
T2 construct: expressed in transfected cells; host or cells: CHO-K1 cells coexpressing mitochondrial apoaequorin and Gα16
Description: CHO-K1 cells coexpressing mitochondrial apoaequorin, recombinant Serotonin 5-HT2Cne and the promiscuous G protein Gα16, grown to mid-log phase in culture media without antibiotics were detached with PBS-EDTA, centrifuged and resuspended in assay buffer (DMEM/HAM's F12 with HEPES, without phenol red+0.1% BSA protease free) at a concentration of 1×10^6 cells/ml. Cells were incubated at room temperature for at least 4 h with coelenterazine h. […] For agonist testing, 50 μL of cell suspension were mixed with 50 μL of test or reference agonist in a 96-well plate. The resulting emission of light is recorded using Hamamatsu Functional Drug Screening System 6000 (FDSS 6000) luminometer. Agonist activity of test compound was expressed as a percentage of the activity of the reference agonist at its EC100 concentration.

β2 AR = β2 AR (Homo sapiens, UniProt P07550); experiment: cAMP response in CHO cells stably transfected with human β2 adrenoceptor (Test 1)
β2 AR, sequence (P07550 whole entry): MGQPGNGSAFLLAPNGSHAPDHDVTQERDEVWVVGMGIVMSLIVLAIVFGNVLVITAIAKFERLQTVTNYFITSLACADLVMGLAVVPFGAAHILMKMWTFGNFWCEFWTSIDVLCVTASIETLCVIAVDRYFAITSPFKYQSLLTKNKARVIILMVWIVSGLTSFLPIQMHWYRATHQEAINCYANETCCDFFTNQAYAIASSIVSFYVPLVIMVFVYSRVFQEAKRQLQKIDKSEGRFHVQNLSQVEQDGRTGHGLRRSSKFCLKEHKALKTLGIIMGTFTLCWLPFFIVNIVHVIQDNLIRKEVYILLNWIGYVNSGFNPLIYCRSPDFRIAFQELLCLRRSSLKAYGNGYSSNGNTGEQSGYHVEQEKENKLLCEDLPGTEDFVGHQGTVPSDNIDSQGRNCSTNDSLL

T2 sequence (P28335 33-458): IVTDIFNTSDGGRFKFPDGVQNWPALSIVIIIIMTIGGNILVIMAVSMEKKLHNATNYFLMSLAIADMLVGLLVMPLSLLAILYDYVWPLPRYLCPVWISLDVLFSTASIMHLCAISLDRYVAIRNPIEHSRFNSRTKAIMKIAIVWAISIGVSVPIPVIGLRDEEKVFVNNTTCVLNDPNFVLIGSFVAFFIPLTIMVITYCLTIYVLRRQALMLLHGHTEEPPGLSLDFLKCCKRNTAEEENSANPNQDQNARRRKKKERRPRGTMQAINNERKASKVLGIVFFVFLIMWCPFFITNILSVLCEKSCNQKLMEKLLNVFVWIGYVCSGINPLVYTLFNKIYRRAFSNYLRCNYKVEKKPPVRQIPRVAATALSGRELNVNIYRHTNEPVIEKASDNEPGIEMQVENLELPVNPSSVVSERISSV

CCCCOc1ccc(CC(C)(C)NC[C@H](O)c2cc(O)cc3[nH]c(=O)sc23)cc1.O=C(O)CO [Compound A glycolate salt, (R)-7-(2-(1-(4-butoxyphenyl)-2-methylpropan-2-ylamino)-1-hydroxyethyl)-5-hydroxybenzo[d]thiazol-2(3H)-one glycolate salt]
melting point: ~ 188 °C

CCCCOc1ccc(CC(C)(C)NC[C@H](O)c2cc(O)cc3[nH]c(=O)sc23)cc1 [Compound A, (R)-7-(2-(1-(4-butoxyphenyl)-2-methylpropan-2-ylamino)-1-hydroxyethyl)-5-hydroxybenzo[d]thiazol-2(3H)-one]
EC50 (α1A AR): > 10 µM | Compound A free base solubility in H2O, Conc ([1]; pH 7.3): <10 µg/mL | Compound A free base solubility in H2O, Conc ([1]; pH 7.8): <10 µg/mL | Sino-Atrial node beating rate, maximum increase (n = 6) [2]: +6.2% | direct effects on the pacemaker activity ([3]; compared to Formoterol): less direct effects | Automaticity, maximum increase (n = 3) ([3]; isolated rabbit heart): +17% | heart rate change in rats [4]: less heart rate increases | heart rate change in rhesus monkeys (Rhesus monkeys): less heart rate increase | fold less active on 5-HT2C when compared to the racemate or the (S) enantiomer (Serotonin 5-HT2C): over 10 fold | fold less active on 5-HT2C when compared to β2 AR agonist activity (Serotonin 5-HT2C; 5-HT2C EC50 versus β2 AR EC50): 50 fold | EC50 (β2 AR): < 0.01 µM
